Here are results for two compounds from patent US20160038532A1, “Treatment of Multiple Sclerosis With Combination of Laquinimod and Glatiramer Acetate” (TEVA PHARMACEUTICAL INDUSTRIES, LTD., priority 2011, published 2016).

Marks after values point to notes of the source that are not given here.

Data set [1] can be described thus: Weight of EAE mice (Example 2.1). It counts as in vivo, C57B1/6 mice. The text has this: FIG. 1 is a graphical representation of the experimental results from Example 2.1.
The differences were statistically significant (by MANOVA). […] However, when the first signs appeared the mice started to lose weight. On days 16 and 24 the weight of control mice was statistically different from almost all the others (Table 4, FIG. 1B).

For data set [2] the following is noted: in vivo; cited from earlier work.
In another data set the test system is Multiple Sclerosis. As to conditions: two phase III trials; cited from earlier work.
The subject of a further data set is multiple sclerosis (MS). The following applies: daily subcutaneous injections, 20 mg/injection; cited from earlier work.
Setting [3] is: laquinimod 5 mg/kg/day, alone or + GA-blocking.
[4] abbreviates: laquinimod 25 mg/kg/day, alone or + GA-blocking.

On to `CCN(C(=O)c1c(O)c2c(Cl)cccc2n(C)c1=O)c1ccccc1` [laquinimod], for which, in data set [1] (setting [3]), the “weight, day 5 after induction” value turned out to be 17.5; the “weight, day 10 after induction” value worked out at 18.5; the “weight, day 16 after induction” value was 18.6; the “weight, day 24 after induction” value is 16.5. Moreover, the “weight, day 30 after induction” value in data set [1] (setting [3]) is listed as 16.0. Further, in data set [1] (setting [4]), the “weight, day 5 after induction” value was found to be 17.8; the “weight, day 10 after induction” value is recorded as 18.9; the “weight, day 16 after induction” value is reported as 19.1*; the “weight, day 24 after induction” value is on record as 17.5. In data set [1] (setting [4]), the “weight, day 30 after induction” value came to 17.6. Further, in data set [2], the oral bioavailability entry is reported as “high oral bioavailability”. In addition, in the data set on Multiple Sclerosis, the “safety and tolerability profile” value is “favorable safety and tolerability profile”.

With “L-glutamic acid polymer with L-alanine, L-lysine and L-tyrosine, acetate (salt) [GA]”, in data set [1] (GA-blocking alone), the “weight, day 5 after induction” value came to 17.9; the “weight, day 10 after induction” value is recorded as 19.3; the “weight, day 16 after induction” value is listed as 19.9**; the “weight, day 24 after induction” value is recorded as 18.0*. For the same compound, in data set [1] (GA-blocking alone), the “weight, day 30 after induction” value is listed as 18.2. Besides, in the data set on multiple sclerosis (MS), the “effect on relapse rates, progression of disability, new MRI lesions” value is “reduce relapse rates”.
